Laboratory results as given in patent publication US20210220368A1, “COMPOSITIONS COMPRISING TIMOLOL AND THEIR USE IN THE TREATMENT OF ROSACEA BY TOPICAL ADMINISTRATION” (Almirall, S.A., priority 2016, published 2021).

How the values were obtained:
TPA-induced ear oedema [1] = assay: TPA-induced ear oedema model in Balb/c mice; format: in vivo; conditions: timolol 1%, brimonidine 0.2% in acetone, topical, 30 min before and 15 min after TPA; ear weight at T+6 h; p<0.005
Protocol: Evaluation of the Anti-Oedema Effect of Timolol and Brimonidine after Two Topical Applications in the TPA-Induced Ear Oedema Model in Balb/c Mice.
The oedema is induced by means of a single application to the right ear of the mouse of 20 μl of a solution of TPA (phorbol 12-myristate 13-acetate) in acetone at 0.01%. The test compounds are diluted in acetone and applied 30 minutes before and 15 minutes after TPA. The weight of the mouse ears is measured at T+6 h and the weight of the left ear is subtracted from the one of the right ear.
Timolol was applied at a concentration of 1% before and after TPA application. The alpha agonist, brimonidine 0.2% was also tested for comparison.
Each group included 12 animals. Numbers above the bars indicate the percentage inhibition of the corresponding group of treated animals vs the control group.

[2] = tested on: capsaicin-induced vasodilation; assay: Vasodilation (erythema) induced by topical capsaicin in the ear of CD1 mice; format: in vivo, CD-1 mice; conditions: timolol 1%, brimonidine 0.33%, oxymetazoline 0.88% solutions, topical to the ear before capsaicin; peak erythema 45 min after capsaicin, Mexameter
Protocol: Evaluation of the Effect of Topical Timolol, Brimonidine and Oxymetazoline in Vasodilation Induced by Topical Application of Capsaicin in the Ear of CD1 Mice
Neurogenic skin inflammation was induced by capsaicin (Alacapsin 0.075% cream) on the ear of CD-1 mice. Capsaicin induces the release of neuropeptides most of which have vasodilatory properties. In this model vasodilation is evaluated with a narrowband spectrophotometer probe (Mexameter) that measures peak absorption of haemoglobin. The quantity of light absorbed by the skin is calculated as Mexameter® arbitrary units, and this measure of erythema can be considered a surrogate of vasodilation. […] Treatment effects are reported at this maximal induction of erythema.
Timolol 1%, brimonidine 0.33% and oxymetazoline 0.88% solutions were applied topically to the mouse ear before capsaicin induction.
Results described represent peak erythema of four groups of animals and are reported as mexameter arbitrary units. Each group included 6-12 animals. Numbers above the bars indicate the percentage inhibition of the corresponding group vs the capsaicin control group.

TPA-induced ear oedema [3] = conditions: topical brimonidine 0.2%, mice; Piwnica et al., J. Dermatol. Sci. 2014; cited from earlier work
[4] = tested on: erythematotelangiectatic rosacea; conditions: topical timolol, human subjects with erythematotelangiectatic rosacea; Jaque et al., Rev. Chilena Dermatol 2012; cited from earlier work

Compound | inhibition of ear oedema vs control group (TPA-induced ear oedema [1]) | percentage inhibition of ear vasodilation (erythema) vs capsaicin control group [2] [%] | inhibition of TPA-induced ear oedema (TPA-induced ear oedema [3]) [%] | clinical benefit [4]
Brc1c(NC2=NCCN2)ccc2nccnc12 [brimonidine] | around 50% | 56 | 50 | 
Cc1cc(C(C)(C)C)c(O)c(C)c1CC1=NCCN1 [oxymetazoline] |  | 60 |  | 
CC(C)(C)NC[C@H](O)COc1nsnc1N1CCOCC1 [timolol, (S)-1-(tert-butylamino)-3-[(4-morpholin-4-yl-1,2,5-thiadiazol-3-yl)oxy]propan-2-ol] | around 50% | 44 |  | no clinical benefit
